# Results published in PubChem BioAssay (NCI).
#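 Exposure lasted 48 hours, with cells grown in 96-well plates and compounds tested at five concentrations. The concentration for full growth arrest is given as TGI.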
# Assays:
# Assay in all cases: NCI tumour cell line growth inhibition, 48 h
# SR leukemia = tested on: SR leukemia
# MOLT-4 leukemia = tested on: MOLT-4 leukemia
# MDA-MB-435 = tested on: MDA-MB-435
# NCI-H226 lung = tested on: NCI-H226 lung
# CCRF-CEM leukemia = tested on: CCRF-CEM leukemia
# UACC-62 melanoma = tested on: UACC-62 melanoma
# HCT-116 colon = tested on: HCT-116 colon
# UO-31 renal = tested on: UO-31 renal
# HCC-2998 colon = tested on: HCC-2998 colon
# HCT-15 colon = tested on: HCT-15 colon
# RXF 393 renal = tested on: RXF 393 renal
# HL-60(TB) leukemia = tested on: HL-60(TB) leukemia
# SK-MEL-2 melanoma = tested on: SK-MEL-2 melanoma
# A549 NSCLC = tested on: A549 NSCLC
# IGROV1 ovarian = tested on: IGROV1 ovarian
# MDA-MB-231 breast = tested on: MDA-MB-231 breast
# NCI-H23 lung = tested on: NCI-H23 lung
# MALME-3M melanoma = tested on: MALME-3M melanoma
# MCF7 breast = tested on: MCF7 breast
# HOP-62 NSCLC = tested on: HOP-62 NSCLC
Structure (SMILES),TGI (SR leukemia),TGI (MOLT-4 leukemia),TGI (MDA-MB-435),TGI (NCI-H226 lung),TGI (CCRF-CEM leukemia),TGI (UACC-62 melanoma),TGI (HCT-116 colon),TGI (UO-31 renal),TGI (HCC-2998 colon),TGI (HCT-15 colon),TGI (RXF 393 renal),TGI (HL-60(TB) leukemia),TGI (SK-MEL-2 melanoma),TGI (A549 NSCLC),TGI (IGROV1 ovarian),TGI (MDA-MB-231 breast),TGI (NCI-H23 lung),TGI (MALME-3M melanoma),TGI (MCF7 breast),TGI (HOP-62 NSCLC)
CN=C(N)N/N=C(\C)c1ccc2oc3ccc(/C(C)=N/NC(N)=NC)cc3c2c1,4.75 µM,2.42 µM,> 100 µM,4.73 µM,9.06 µM,> 23.8 µM,> 100 µM,> 100 µM,4.97 µM,> 100 µM,> 50.7 µM,10.7 µM,5.24 µM,> 100 µM,,,,,,
N#Cc1c2c([nH]c(=O)c1C#N)CCCC2,,> 100 µM,> 100 µM,> 100 µM,> 100 µM,> 100 µM,> 100 µM,> 100 µM,> 100 µM,> 100 µM,> 100 µM,> 100 µM,> 100 µM,> 100 µM,> 100 µM,> 100 µM,> 100 µM,> 100 µM,> 100 µM,
CCN1C(=O)C(=Cc2ccc(-c3ccccc3)cc2)C(=O)N(CC)C1=S,,> 100 µM,> 100 µM,> 100 µM,> 100 µM,> 100 µM,> 100 µM,> 100 µM,> 100 µM,> 100 µM,> 100 µM,> 100 µM,> 100 µM,> 100 µM,> 100 µM,> 100 µM,> 100 µM,> 100 µM,> 100 µM,> 100 µM
CC(Oc1ccc(OCC2CCCCC2)cc1)C(=O)N(CCO)CCO (stereo not given),,> 100 µM,,> 100 µM,> 100 µM,> 100 µM,> 100 µM,> 100 µM,> 100 µM,> 100 µM,> 100 µM,> 100 µM,> 100 µM,> 100 µM,> 100 µM,,> 100 µM,> 100 µM,,
C=CC12CN(C)C3C4COC(CC41)C1(C(=O)Nc4ccccc41)C32 (stereo not given),,> 200 µM,,> 200 µM,> 195 µM,> 200 µM,> 200 µM,> 200 µM,> 200 µM,> 200 µM,> 200 µM,> 186 µM,> 200 µM,> 200 µM,> 200 µM,,> 200 µM,> 200 µM,> 200 µM,> 200 µM
CC(C)N1CSC(=S)N(Cc2ccccc2)C1,4.81 µM,7.43 µM,> 10 µM,,> 10 µM,> 10 µM,> 10 µM,,> 10 µM,> 10 µM,6.27 µM,0.652 µM,,> 10 µM,> 10 µM,,> 10 µM,,> 10 µM,> 10 µM
Nc1ccc(S(=O)(=O)c2ccc(NC(=O)c3cccnc3)cc2)cc1,,> 100 µM,> 100 µM,> 100 µM,,> 100 µM,> 100 µM,> 100 µM,> 100 µM,> 100 µM,> 100 µM,> 100 µM,,> 100 µM,> 100 µM,> 100 µM,> 100 µM,> 100 µM,> 100 µM,> 100 µM
